Experiments:
[1] = target: T1, RORγ-LBD (Homo sapiens, UniProt P51449); experiment: RORγ-Ligand Binding Domain (LBD) TR-FRET Assay; format: biochemical; conditions: for TR-FRET Assay Max Response: maximum response;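 on TR-FRET Assay Max Response: 665/615 nm signal ratio set to 100 without ursolic acid or test compound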
T1 construct: made in house; host or cells: SF9 cells (baculovirus); used as diluted lysate
T1 sequence (P51449 269-508 limits assumed): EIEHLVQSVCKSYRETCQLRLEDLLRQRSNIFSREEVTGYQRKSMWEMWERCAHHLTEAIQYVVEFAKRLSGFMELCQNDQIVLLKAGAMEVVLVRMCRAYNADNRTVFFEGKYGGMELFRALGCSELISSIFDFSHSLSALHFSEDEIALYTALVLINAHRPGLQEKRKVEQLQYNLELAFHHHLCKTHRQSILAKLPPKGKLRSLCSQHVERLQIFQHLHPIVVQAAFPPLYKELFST
Summary of the method: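 His-tagged RORγ-LBD from SF9 baculovirus lysate, ~3 nM final, in 50 mM Tris pH 7.0, 50 mM KCl, 1 mM EDTA, 0.1 mM DTT, 0.01% BSA. Biotinylated SRC1 LXXLL peptide at 200 nM final with 2 μM ursolic acid; TR-FRET read-out, 1% DMSO final.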

[2] = target: T2, Gal4-RORγ-LBD (Homo sapiens, UniProt P51449); experiment: Gal4-RORγ Luciferase Reporter Assay in HEK-293T Cells; format: cell-based; conditions: HEK-293 cells; for Gal4-RORγ Assay Max Response: maximum response
T2 construct: expressed in transfected cells
T2 sequence (P51449 269-508 limits assumed): T1 sequence (P51449 269-508 limits assumed)
Summary of the method: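 HEK-293 cells were co-transfected with Gal4-RORγ-LBD and a Gal4-luciferase reporter, then exposed overnight at 37 °C to compounds with […] ursolic acid present (0.2% DMSO). Luminescence was read with One-Glo after 10 min at RT, untreated signal was set as 100, and Max Response was taken as the upper plateau of a 4-parameter logistic fit.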

[3] = luciferase reporter, in presence of ursolic acid
[4] = with 2 μM ursolic acid (RORγ antagonist), highest test concentration 10 μM
[5] = ursolic acid present, luciferase readout
[6] = luciferase reporter, with ursolic acid

Row | EC50 ([1]; RORγ-LBD TR-FRET assay) | EC50 [2, 3] | EC50 [1, 4] | EC50 [2, 5] | EC50 ([1]; RORγ-LBD TR-FRET) | EC50 [2, 6] | SMILES | TR-FRET Assay Max Response ([1]; RORγ-LBD TR-FRET assay) | Gal4-RORγ Assay Max Response [2, 3]
1 | < 0.5 µM | < 0.5 µM | – | – | – | – | C/C(=C\c1ccc2c(c1)C(S(=O)(=O)c1cccc(C(F)(F)F)c1)CC(CNS(C)(=O)=O)O2)c1c(F)cccc1Cl (stereo not drawn) [Example 184, (E)-N-((6-(2-(2-Chloro-6-fluorophenyl)prop-1-en-1-yl)-4-((3-(trifluoromethyl)phenyl)sulfonyl)chroman-2-yl)methyl)methanesulfonamide] | *** (a value in the range of greater than 150 to 200) | ** (a value in the range of greater than 90 to 150)
2 | < 0.5 µM | < 0.5 µM | – | – | – | – | C/C(=C\c1ccc2c(c1)N(S(=O)(=O)c1cccc(C(F)(F)F)c1)C[C@H](CCC(=O)N1CCS(=O)(=O)CC1)O2)c1c(F)cccc1Cl [Example 127C, (S,E)-3-(6-(2-(2-chloro-6-fluorophenyl)prop-1-en-1-yl)-4-((3-(trifluoro-methyl)phenyl)sulfonyl)-3,4-dihydro-2H-benzo[b][1,4]oxazin-2-yl)-1-(1,1-dioxidothio-morpholino)propan-1-one] | **** (a value greater than 200) | ** (a value in the range of greater than 90 to 150)
3 | < 0.5 µM | < 0.5 µM | – | – | – | – | CC(=O)N[C@@H]1Cc2ccc(/C=C(\C)c3c(F)cccc3Cl)cc2N(S(=O)(=O)c2cccc(C(F)(F)F)c2)C1 [Example 165, (R,E)-N-(7-(2-(2-Chloro-6-fluorophenyl)prop-1-en-1-yl)-1-((3-(trifluoromethyl)phenyl)sulfonyl)-1,2,3,4-tetrahydroquinolin-3-yl)acetamide] | *** (a value in the range of greater than 150 to 200) | * (a value in the range of 30 to 90)
4 | – | – | < 0.5 µM | < 0.5 µM | – | – | C/C(=C\c1ccc2c(c1)N(S(=O)(=O)c1cccc(C(F)(F)F)c1)C[C@H](CCC#N)O2)c1c(F)cccc1Cl | – | –
5 | – | – | – | – | < 0.5 µM | 0.5 to 5 µM | C/C(=C\c1ccc2c(c1)N(S(=O)(=O)c1cncc(C(F)(F)F)c1)C[C@H](CCC(=O)O)O2)c1c(F)cccc1Cl [Example 75, (S,E)-3-(6-(2-(2-Chloro-6-fluorophenyl)prop-1-en-1-yl)-4-((5-(trifluoromethyl)pyridin-3-yl)sulfonyl)-3,4-dihydro-2H-benzo[b][1,4]oxazin-2-yl)propanoic acid] | – | –
6 | – | – | – | – | < 0.5 µM | > 10 µM | O=C(O)CC[C@H]1CN(S(=O)(=O)c2cccc(C(F)(F)F)c2)c2cc(/C=C/c3cccc(F)c3Cl)ccc2O1 [Example 89BP, (S,E)-3-(6-(2-chloro-3-fluorostyryl)-4-((3-(trifluoromethyl)phenyl)sulfonyl)-3,4-dihydro-2H-benzo[b][1,4]oxazin-2-yl)propanoic acid] | – | –
7 | – | – | – | – | < 0.5 µM | < 0.5 µM | CCOc1nn(CC)cc1S(=O)(=O)N1C[C@H](CCC(=O)O)Oc2ccc(/C=C/c3c(Cl)cccc3Cl)cc21 [Example 89CR, (S,E)-3-(6-(2,6-dichlorostyryl)-4-((3-ethoxy-1-ethyl-1H-pyrazol-4-yl)sulfonyl)-3,4-dihydro-2H-benzo[b][1,4]oxazin-2-yl)-propanoic acid] | – | –
8 | – | – | – | – | < 0.5 µM | 0.5 to 5 µM | O=C(O)CC[C@H]1CN(S(=O)(=O)c2cc(C(F)(F)F)cnc2OCCO)c2cc(/C=C/c3c(F)cccc3Cl)ccc2O1 [Example 89EC, (S,E)-3-(6-(2-chloro-6-fluorostyryl)-4-((2-(2-hydroxyethoxy)-5-(trifluoromethyl)-pyridin-3-yl)sulfonyl)-3,4-dihydro-2H-benzo[b][1,4]oxazin-2-yl)propanoic acid] | – | –
9 | < 0.5 µM | < 0.5 µM | – | – | – | – | C/C(=C\c1ccc2c(c1)N(S(=O)(=O)c1cccc(C(F)(F)F)c1)C[C@H](CCC(=O)N1CC3(COC3)C1)O2)c1c(F)cccc1Cl [Example 127D, (S,E)-3-(6-(2-(2-chloro-6-fluorophenyl)prop-1-en-1-yl)-4-((3-(trifluoro-methyl)phenyl)sulfonyl)-3,4-dihydro-2H-benzo[b][1,4]oxazin-2-yl)-1-(2-oxa-6-azaspiro[3.3]heptan-6-yl)propan-1-one] | **** (a value greater than 200) | ** (a value in the range of greater than 90 to 150)
10 | < 0.5 µM | 0.5 to 5 µM | – | – | – | – | N[C@@H]1Cc2ccc(OCc3c(F)cccc3Cl)cc2N(S(=O)(=O)c2cccc(C(F)(F)F)c2)C1 [Example 159, (R)-7-((2-Chloro-6-fluorobenzyl)oxy)-1-((3-(trifluoromethyl)phenyl)sulfonyl)-1,2,3,4-tetrahydroquinolin-3-amine] | – | –
11 | < 0.5 µM | < 0.5 µM | – | – | – | – | COc1cc(S(=O)(=O)N2c3cc(/C=C/c4c(F)cccc4Cl)ccc3C[C@@H](O)[C@H]2C)ccc1F (racemic) [Example 168, (2R,3R)-7-((E)-2-Chloro-6-fluorostyryl)-1-((4-fluoro-3-methoxyphenyl)sulfonyl)-2-methyl-1,2,3,4-tetrahydroquinolin-3-ol] | *** (a value in the range of greater than 150 to 200) | * (a value in the range of 30 to 90)
12 | – | – | – | – | < 0.5 µM | 0.5 to 5 µM | O=C(O)CC[C@H]1CN(S(=O)(=O)c2cc(C(F)(F)F)cnc2OCCO)c2cc(C=C3CCC(F)(F)CC3)ccc2O1 [Example 95M, (S)-3-(6-((4,4-difluorocyclohexylidene)methyl)-4-((2-(2-hydroxyethoxy)-5-(trifluoromethyl)pyridin-3-yl)sulfonyl)-3,4-dihydro-2H-benzo[b][1,4]oxazin-2-yl)propanoic acid] | – | –
13 | < 0.5 µM | 0.5 to 5 µM | – | – | – | – | COc1cc(S(=O)(=O)N2C[C@H](CNC(=O)[C@H]3CC[C@H](C(=O)O)CC3)Oc3ccc(/C=C(\C)c4c(F)cccc4Cl)cc32)ccc1F [Example 135C, (1S,4r)-4-((((S)-6-((E)-2-(2-chloro-6-fluoro-phenyl)prop-1-en-1-yl)-4-((4-fluoro-3-methoxy-phenyl)sulfonyl)-3,4-dihydro-2H-benzo[b][1,4]oxazin-2-yl)methyl)carbamoyl)-cyclohexane-1-carboxylic acid] | *** (a value in the range of greater than 150 to 200) | * (a value in the range of 30 to 90)
14 | – | – | – | – | < 0.5 µM | 0.5 to 5 µM | CCOc1ncc(C(F)(F)F)cc1S(=O)(=O)N1C[C@H](CCC(=O)OC)Oc2ccc(/C=C/c3c(Cl)cccc3C(F)(F)F)cc21 [Example 89DN, methyl (S,E)-3-(6-(2-chloro-6-(trifluoromethyl)styryl)-4-((2-ethoxy-5-(trifluoromethyl)-pyridin-3-yl)sulfonyl)-3,4-dihydro-2H-benzo[b][1,4]-oxazin-2-yl)propanoate] | – | –
15 | – | – | – | – | < 0.5 µM | 0.5 to 5 µM | C/C(=C\c1ccc2c(c1)N(S(=O)(=O)c1cccc(OC(F)(F)F)c1)C[C@H](CCC(=O)O)O2)c1c(F)cccc1Cl [Example 86S, (S,E)-3-(6-(2-(2-chloro-6-fluorophenyl)prop-1-en-1-yl)-4-((3-(trifluoromethoxy)phenyl)-sulfonyl)-3,4-dihydro-2H-benzo[b][1,4]oxazin-2-yl)propanoic acid] | – | –
16 | – | – | < 0.5 µM | < 0.5 µM | – | – | O=C(O)CC[C@H]1CN(S(=O)(=O)c2cc(C3CC3)cnc2OCCO)c2cc(/C=C/c3c(F)cccc3Cl)ccc2O1 [Example 89FO, (S,E)-3-(6-(2-chloro-6-fluorostyryl)-4-((5-cyclopropyl-2-(2-hydroxyethoxy)pyridin-3-yl)sulfonyl)-3,4-dihydro-2H-benzo[b][1,4]oxazin-2-yl)propanoic acid] | – | –
17 | < 0.5 µM | < 0.5 µM | – | – | – | – | COc1cc(S(=O)(=O)N2c3cc(OCc4c(F)cccc4Cl)ccc3C[C@@H](CNC(C)=O)[C@H]2C)ccc1F [Example 152, N-(((2R,3S)-7-((2-Chloro-6-fluorobenzyl)oxy)-1-((4-fluoro-3-methoxyphenyl)sulfonyl)-2-methyl-1,2,3,4-tetrahydroquinolin-3-yl)methyl)acetamide] | *** (a value in the range of greater than 150 to 200) | ** (a value in the range of greater than 90 to 150)
18 | < 0.5 µM | < 0.5 µM | – | – | – | – | O=S(=O)(c1cccc(C(F)(F)F)c1)N1C[C@H](O)Cc2ccc(OCc3c(F)cccc3Cl)cc21 [Example 155, (R)-7-((2-Chloro-6-fluorobenzyl)oxy)-1-((3-(trifluoromethyl)phenyl)sulfonyl)-1,2,3,4-tetrahydroquinolin-3-ol] | ** (a value in the range of greater than 90 to 150) | ** (a value in the range of greater than 90 to 150)
19 | – | – | – | – | < 0.5 µM | > 10 µM | Cc1ccnc(/C=C/c2ccc3c(c2)N(S(=O)(=O)c2cccc(C(F)(F)F)c2)C[C@H](CCC(=O)O)O3)c1F [Example 89CH, (S,E)-3-(6-(2-(3-fluoro-4-methylpyridin-2-yl)vinyl)-4-((3-(trifluoromethyl)phenyl)sulfonyl)-3,4-dihydro-2H-benzo[b][1,4]-oxazin-2-yl)propanoic acid] | – | –
